# US12171864B2, “Biological self-assembled nanocrystal injection having a lymphatic targeting function and preparation method” (SHENZHEN CHINA RESOURCES JIUCHUANG MEDICAL AND …, priority 2017, dated 2024)
# Counter-ions that a name gives are not always drawn.
# Key:
# [1] = Effect of pH on the drug stability (drug content after 0.22 μm filtration); assay type: physicochemical; settings: filtered 0.22 μm
# Description: Mitoxantrone hydrochloride was used as a model drug. The pH of the injection was adjusted to 1.5, 2.0, 2.5, 3.5, 4.5, 5.5, 6.0, 6.5, and 7.0, respectively. At one hour after adjusting the pH value, the content of the drug was determined after filtration through a 0.22 μm membrane. When the pH was between 1.5 and 6.0, the drug content was from 98.45±0.61% to 101.72±0.20%.
# lymph nodes [2] = assay: Effect of pH on the drug targeting ability (lymph node staining); assay type: in vivo, Kunming mice
# Description: Mitoxantrone hydrochloride was used as a model drug. The pH of the injection was adjusted to 1.5, 2.0, 2.5, 3.5, 4.5, 5.5, and 6.0, respectively. The mode of administration of interstitial injection was selected for subcutaneous injection in the paws of Kunming mice. At the pre-set time points, the mice were sacrificed by cervical dislocation, and the first, second and third classes of lymph nodes of the mice were removed for observation of staining.
# injection site = assay: Effect of the osmotic pressure on the irritation of the injection site (H&E staining); assay type: in vivo, Kunming mice
# Description: (§1) Mitoxantrone hydrochloride was used as a model drug. The osmotic pressure of the injection was adjusted to 112, 196, 285, 307, 1503, 2317, and 3011 mmol/Kg, respectively. The mode of administration of interstitial injection was selected for subcutaneous injection in the paws of Kunming mice. At the pre-set time points, the mice were sacrificed by cervical dislocation, and the administration sites of the mice were taken for H&E staining to evaluate local irritation.
# lymph nodes [3] = assay: Effect of the osmotic pressure on the drug targeting ability (lymph node staining); assay type: in vivo, Kunming mice
# Description: as §1, with “the first, second and third classes” for “the administration sites”, “of lymph nodes” for “of the mice”, “were removed” for “were taken”, “for observation of staining.” for “for H&E staining to evaluate local irritation.”
compound,measurement,setting,value
O=C1c2c(O)ccc(O)c2C(=O)c2c(NCCNCCO)ccc(NCCNCCO)c21 [Mitoxantrone hydrochloride],drug content,"[1]; pH 6.5, one hour after adjusting pH",83.76±0.53%
same,drug content,"[1]; pH 7.0, one hour after adjusting pH",75.38±0.22%
same,color of third class of lymph nodes,"lymph nodes [2]; pH 2.0, 2.5 or 6.0, subcutaneous injection in the paws",light blue
same,staining of lymph nodes,"lymph nodes [2]; pH between 2.0 and 6.0, subcutaneous injection in the paws",the three classes of lymph nodes could be stained
same,staining of lymph nodes,"lymph nodes [2]; pH between 3.5 and 5.5, subcutaneous injection in the paws",all the three classes of lymph nodes could be stained into dark blue
same,staining of lymph nodes,"lymph nodes [2]; pH less than 2.0, subcutaneous injection in the paws",only one class of lymph nodes could be stained
same,local irritation of the injection site,"injection site; osmotic pressure 3011 mmol/Kg, subcutaneous injection in the paws",redness and swelling occurred and the H&E staining showed local irritation
same,local irritation of the injection site,"injection site; other osmotic pressure values (112, 196, 285, 307, 1503, 2317 mmol/Kg)",did not show obvious local irritation
same,color of third class of lymph nodes,lymph nodes [3]; osmotic pressure 285 or 2317 mmol/Kg,light blue
same,staining of lymph nodes,lymph nodes [3]; osmotic pressure between 285 and 2317 mmol/Kg,all the three classes of lymph nodes could be stained
same,staining of lymph nodes,lymph nodes [3]; osmotic pressure between 307 and 1503 mmol/Kg,all the three classes of lymph nodes could be stained into dark blue
same,staining of lymph nodes,lymph nodes [3]; osmotic pressure less than 285 mmol/Kg,only one class of lymph nodes could be stained
